Results on four molecules are retold here after publication PMC3707110 (Nature methods, 2012).

Non-standard residues stand in square brackets, D forms with d. Residues, ends and D or L forms follow the SMILES beside them. *: point of attachment. Sta = CC(C)C[C@H](N)[C@@H](O)CC(=O)O; Isovaleryl = CC(C)CC(=O)*

Assay [1] concerns peptidases in conditioned media from pancreatic ductal adenocarcinoma cells. Format: biochemical, mouse. To be noted: media pre-treated 30 minutes at room temperature with 1 μM E64, 1 μM 1,10-Phenanthroline or 400 nM pepstatin; pH 5.2; within 1200 minutes.
Another assay relates to Granzyme B. The note with it: fluorescent substrate containing the sequence; previous studies; cited from earlier work.

Take `CC(C)CC(=O)N[C@H](C(=O)N[C@H](C(=O)N[C@@H](CC(C)C)[C@@H](O)CC(=O)N[C@@H](C)C(=O)N[C@@H](CC(C)C)[C@@H](O)CC(=O)O)C(C)C)C(C)C` [pepstatin] (Isovaleryl-VV[Sta]A[Sta]-OH): the “effect on cleavage sites / cleavage signature of conditioned media” value in assay [1] is “completely altered the cleavage signature”.
Same read-out and setting: to `CC(C)C[C@H](NC(=O)[C@H]1O[C@@H]1C(=O)O)C(=O)NCCCCN=C(N)N` [E-64] belongs “majority of cleavage sites remained unchanged”.
Regarding VVAD↓SSMES, in the assay with Granzyme B, the “catalytic efficiency (kcat/KM)” value was 116,000 M^−1 s^−1.
Regarding `c1cnc2c(c1)ccc1cccnc12` [1,10-phenanthroline], the “effect on cleavage sites / cleavage signature of conditioned media” value in assay [1] is recorded as “majority of cleavage sites remained unchanged”.
